This is an account of results in patent US20050187187A1, “Carboxyl-reduced derivatives of chondroitin sulfate, preparation thereof, use thereof as a medicinal product and the pharmaceutical compositions containing them” (Aventis Pharmas S.A., priority 2003, published 2005).

Assay [1] deals with T1, bovine factor Xa (Bos taurus, UniProt P00743). Put plainly: Inhibition of factor Xa, chromogenic substrate S-2765 with human antithrombin III. The class given is biochemical. As to conditions: calibrated against Enoxaparin standard. The protocol:
For the calibration, a standard sample of low molecular weight heparin (Enoxaparin) was used as reference.
The serial dilutions of the assay compound are prepared in a 0.046 M Tris buffer, pH 8.4, containing 0.15 M NaCl, 0.007 M EDTA, 0.1% of Tween 80 and 0.12 IU/ml of human antithrombin III. The samples of 50 μl of the respective dilutions are incubated with 50 μl of bovine factor Xa (13.6 U/ml) at 37° C. for 80 seconds. Next, 50 μl of chromogenic substrate, 1.1 mM S-2765, are added. The absorbance at 405 nm is measured in a photometer. The activity of the deblocked factor Xa is indicated by the emission of p-nitroaniline from the substrate.
Compared to the reference heparin compound (100 U/mg), the glycosamonoglycans present a factor Xa, with much lower inhibitory activity: […]

The target of another assay is aggrecanase. Put plainly: Effect on aggrecanase: conversion of recombinant substrate Agg1mut, ELISA with BC-3 antibody. The class given is biochemical. Particulars: for % Conversion: conversion of the substrate by aggrecanase in the supernatant. The protocol:
Effect of the carboxyl-reduced derivatives on the aggrecanase in synovial fluids or on preparations of recombinant ADAMTS protein.
The analysis is carried out on 96-well plates. Before the analysis, serial dilutions of the assay compounds are prepared in an aqueous solution.
In each well, a fixed volume of synovial fluid or aggrecanase activity generating a known increase, between 1.0 and 1.4 absorbance units (405 nm), under the conditions of the analysis, is mixed with 3 μl of solution of compound from the respective dilution step. Dulbecco's modified Eagle's medium (DMEM) is added to each well to give a final volume of 300 μl. The plate is then incubated for 1 hour at 37° C. in a carbon dioxide atmosphere.
After the addition of 5 μl of a solution of 1 μg/μl of recombinant substrate Agglmut in DMEM to each well (substrate as described by Bartnik E. et al., EP 785274, 1997), the reagent mixture is incubated for 4 hours at 37° C. under a carbon dioxide atmosphere.
In a first step, the microplate is coated with 100 μl per well of a commercial goat anti-mouse IgG antibody for 1 hour at ambient temperature (5 μg/ml in a phosphate buffered saline solution, pH 7.4 [PBS buffer]). After washing with the PBS buffer containing 0.1% of Tween-20 (washing buffer), the wells are blocked by means of a step consisting of a one hour incubation with 100 μl per well of 5% bovine serum albumin in a PBS buffer containing 0.05% of Tween-20. Following another rinse with the washing buffer, each well is incubated with 100 μl of a solution, diluted to 1:1000, of BC-3 antibody in a PBS buffer containing 0.05% of Tween 20 and 0.5% of bovine serum albumin, at ambient temperature for one hour. This antibody recognizes the typical aggrecanase cleavage fragments (Hughes C. E. et al., Biochem. J. 305 (3), 799-804, 1995).
After another rinse of the analytical plate with the washing buffer, the complete set of mixtures originating from the preceding digestion is transferred to this plate, well by well, and incubated at ambient temperature for one hour. The plate is again washed as above. Next, 100 μl of the second antibody (anti-human IgG antibody labeled with peroxidase, 1:1000 in PBS containing 0.5% of BSA and 0.05% of Tween-20) are added to each well, with subsequent incubation at ambient temperature again for one hour. After a final rinse with the washing buffer, the color development is initiated by adding 100 μl of ABTS substrate solution (2 mg/ml, 2,2′-azinobis (3-ethylbenzothiazolinesulfonic acid) in 40 mM of sodium citrate plus 60 mM of disodium hydrogen phosphate, adjusted to a pH of 4.4 by adding acetic acid; 0.25 μl of 35% hydrogen peroxide added per ml immediately before measurement). The measurement is carried out by means of the screen mode using detection at 405 nm relative to a reference filter (620 nm) with automatic readings at 5-second intervals. The development is stopped as soon as the maximum signal (405 nm) in the absorbance range of 1.0 to 1.4 is reached.
% inhibition of conversion of the substrate by activity of the aggrecanase in the supernatant.

In a further assay the target is T2, MMP-2 (gelatinase-A) (Homo sapiens, UniProt P08253).
T2 construct: purchased Amersham Biosciences RPN2617
T2 sequence (P08253 110-660): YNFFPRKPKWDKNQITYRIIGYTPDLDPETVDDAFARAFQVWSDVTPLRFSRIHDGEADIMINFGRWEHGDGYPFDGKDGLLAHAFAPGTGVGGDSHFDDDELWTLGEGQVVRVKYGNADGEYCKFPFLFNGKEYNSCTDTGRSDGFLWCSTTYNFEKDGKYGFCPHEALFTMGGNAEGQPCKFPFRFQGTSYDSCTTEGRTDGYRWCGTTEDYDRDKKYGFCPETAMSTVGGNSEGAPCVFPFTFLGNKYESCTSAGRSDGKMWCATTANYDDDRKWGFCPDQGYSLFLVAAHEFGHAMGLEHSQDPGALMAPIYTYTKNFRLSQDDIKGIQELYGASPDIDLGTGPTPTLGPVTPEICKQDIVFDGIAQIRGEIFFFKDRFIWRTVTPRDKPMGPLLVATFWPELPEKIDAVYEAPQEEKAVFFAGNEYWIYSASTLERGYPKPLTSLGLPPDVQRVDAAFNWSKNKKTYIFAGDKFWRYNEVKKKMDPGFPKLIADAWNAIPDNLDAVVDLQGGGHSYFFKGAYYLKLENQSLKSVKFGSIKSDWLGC
Put plainly: MMP-2 inhibitory activity, commercial ELISA kit. The class given is biochemical. As to conditions: MMP-2 800 ng/ml; dilution series in PBS buffer, pH 7.5; in words. The protocol:
Effect of the Carboxyl-Reduced Persulfate Derivative (Example 1) for Human Metalloproteases MMP-2 (gelatinase-A) and MMP7
Commercial ELISA kits (such as those provided, for example, by the company Amersham Biosciences, kits RPN2617 and RPN2620) were used, respectively, to determine the inhibitory activity with respect to the MMP-2 and MMP-7 enzymes. The concentrations of the enzymes are, respectively, 800 ng/ml for MMP-2. The tests were carried out in accordance with the manufacturer's recommendations, by performing a series of dilutions of the compound to be studied in a PBS buffer, pH 7.5.
In general terms: ELISA stands for enzyme-linked immunosorbent assay.

In assay [2] the target is T1, bovine factor Xa. Particulars: standard sample used for calibration; cited from earlier work.

T1 sequence (P01008 33-464 partner): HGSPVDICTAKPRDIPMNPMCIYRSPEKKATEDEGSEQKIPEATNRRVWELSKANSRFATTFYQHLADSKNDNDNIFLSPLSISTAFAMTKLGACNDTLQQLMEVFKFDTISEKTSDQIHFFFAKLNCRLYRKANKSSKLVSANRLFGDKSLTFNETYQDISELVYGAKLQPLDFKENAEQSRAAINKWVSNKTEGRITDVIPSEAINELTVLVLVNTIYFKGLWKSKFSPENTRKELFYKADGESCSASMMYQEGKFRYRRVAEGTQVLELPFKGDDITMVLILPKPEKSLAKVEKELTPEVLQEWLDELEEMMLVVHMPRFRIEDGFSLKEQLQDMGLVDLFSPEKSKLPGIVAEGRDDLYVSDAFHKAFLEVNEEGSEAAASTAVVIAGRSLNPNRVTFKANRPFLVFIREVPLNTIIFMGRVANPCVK
T1 sequence (P00743 234-492 limits assumed): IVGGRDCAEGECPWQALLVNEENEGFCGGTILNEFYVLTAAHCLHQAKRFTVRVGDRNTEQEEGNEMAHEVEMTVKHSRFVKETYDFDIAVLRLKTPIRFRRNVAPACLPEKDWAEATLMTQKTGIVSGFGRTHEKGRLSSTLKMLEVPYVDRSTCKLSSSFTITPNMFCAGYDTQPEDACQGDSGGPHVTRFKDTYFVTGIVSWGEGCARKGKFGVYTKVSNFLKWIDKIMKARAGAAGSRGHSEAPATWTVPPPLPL

In the case of “Carboxyl-Reduced and Persulfated Chondroitin Sulfate Sodium Salt [Example 1]”, on bovine factor Xa [1], the “factor Xa inhibitory activity” value is 1.2 U/mg. Moreover, the “estimated IC50” value at aggrecanase (aggrecanase, estimated) is around 4 ng/mL. The “% Conversion” value is reported as 100% with aggrecanase (glycosaminoglycan 0.0001 μg/ml); 99.0% with aggrecanase (glycosaminoglycan 0.0003 μg/ml); 95.1% in the assay on aggrecanase (glycosaminoglycan 0.001 μg/ml); 69.2% in the assay on aggrecanase (glycosaminoglycan 0.003 μg/ml); 11.6% in the assay with aggrecanase (glycosaminoglycan 0.01 μg/ml); 14.9% in the assay on aggrecanase (glycosaminoglycan 0.03 μg/ml). For the same substance, the “inhibition of MMP-2” value on MMP-2 (gelatinase-A) is given as “inhibited in a concentration-dependent manner”.

Regarding Enoxaparin [reference heparin compound], the “factor Xa inhibitory activity of the reference standard” value at bovine factor Xa [2] is recorded as 100 U/mg.
